Where two headings read alike, the source gives them in different places.

Assay [1] concerns Fetal Hemoglobin (HbF). As to the kind of experiment: Small molecule HbF induction assay in erythroid-differentiated mPB CD34+ cells (flow cytometry). Type of assay: cell-based, human. The note with it: highest percentage of cells staining positive for HbF (% HbF+ cells) in fitted dose-response curve; DMSO baseline approximately 30-40%. The procedure:
Cryopreserved primary human CD34^+ hematopoietic stem and progenitor cells were obtained from AllCeIIs, LLC. The CD34^+ cells were isolated from the peripheral blood of healthy donors after mobilization by administration of granulocyte colony-stimulating factor. Cells were differentiated ex vivo toward the erythroid lineage using a 2-phase culture method. In the first phase, cells were cultured in Stemspan™ Serum-Free Expansion Media (SFEM) ([…] Technologies Inc.) supplemented with rhSCF (50 ng/mL, Peprotech®, Inc.), rhlL-6 (50 ng/mL, Peprotech®, Inc.), rhlL-3 (50 ng/mL, Peprotech®, Inc.), and rhFlt3L (50 ng/mL, Peprotech®, Inc.), and 1× antibiotic-antimycotic (Life Technologies, Thermo Fisher Scientific) for 6 days at 37° C. with 5% CO2. During the second phase, cells were cultured in erythroid differentiation media at 5,000 cells/mL in the presence of compound for 7 days at 37° C. with 5% […]. Erythroid Differentiation Media is comprised of IMDM (Life Technologies) supplemented with insulin (10 μg/mL. Sigma Aldrich), heparin (2 U/mL Sigma Aldrich), holo-transferrin (330 μg/mL, Sigma Aldrich), human serum AB (5%, Sigma Aldrich), hydrocortisone (1 μM, […] Technologies), rhSCF (100 ng/mL, Peprotech®, Inc.), rhIL-3 (5 ng/mL. Peprotech®, Inc.), rhEPO (3 U/mL, Peprotech®, Inc.), and 1× antibiotic-antimycotic. All compounds were dissolved and diluted into dimethylsulfoxide (DMSO) and were added to culture media for a final concentration of 0.3% DMSO for testing in a 10-point, 1:3 dilution series starting at 10 uM.
For viability analysis, samples were washed and resuspended in phosphate-buffered saline (PBS) and stained with LlVE/DEAD™ Fixable Violet Dead Cell Stain Kit (Life Technologies, L34963) for 20 minutes. Cells were then washed again with PBS and resuspended in PBS supplemented with 2% fetal bovine serum (FBS), and 2 mM EDTA to prepare for cell surface marker analysis. […]
mPB CD34+ cells were expanded for 6 days, then erythroid differentiated in the presence of compound for 7 days. Cells were fixed, stained and analyzed by flow cytometry. […]

The target of assay [2] is T1, WIZ (Homo sapiens, UniProt O95785+Q96SW2).
T1 construct: expressed in transfected cells
T1 sequence (O95785 whole entry): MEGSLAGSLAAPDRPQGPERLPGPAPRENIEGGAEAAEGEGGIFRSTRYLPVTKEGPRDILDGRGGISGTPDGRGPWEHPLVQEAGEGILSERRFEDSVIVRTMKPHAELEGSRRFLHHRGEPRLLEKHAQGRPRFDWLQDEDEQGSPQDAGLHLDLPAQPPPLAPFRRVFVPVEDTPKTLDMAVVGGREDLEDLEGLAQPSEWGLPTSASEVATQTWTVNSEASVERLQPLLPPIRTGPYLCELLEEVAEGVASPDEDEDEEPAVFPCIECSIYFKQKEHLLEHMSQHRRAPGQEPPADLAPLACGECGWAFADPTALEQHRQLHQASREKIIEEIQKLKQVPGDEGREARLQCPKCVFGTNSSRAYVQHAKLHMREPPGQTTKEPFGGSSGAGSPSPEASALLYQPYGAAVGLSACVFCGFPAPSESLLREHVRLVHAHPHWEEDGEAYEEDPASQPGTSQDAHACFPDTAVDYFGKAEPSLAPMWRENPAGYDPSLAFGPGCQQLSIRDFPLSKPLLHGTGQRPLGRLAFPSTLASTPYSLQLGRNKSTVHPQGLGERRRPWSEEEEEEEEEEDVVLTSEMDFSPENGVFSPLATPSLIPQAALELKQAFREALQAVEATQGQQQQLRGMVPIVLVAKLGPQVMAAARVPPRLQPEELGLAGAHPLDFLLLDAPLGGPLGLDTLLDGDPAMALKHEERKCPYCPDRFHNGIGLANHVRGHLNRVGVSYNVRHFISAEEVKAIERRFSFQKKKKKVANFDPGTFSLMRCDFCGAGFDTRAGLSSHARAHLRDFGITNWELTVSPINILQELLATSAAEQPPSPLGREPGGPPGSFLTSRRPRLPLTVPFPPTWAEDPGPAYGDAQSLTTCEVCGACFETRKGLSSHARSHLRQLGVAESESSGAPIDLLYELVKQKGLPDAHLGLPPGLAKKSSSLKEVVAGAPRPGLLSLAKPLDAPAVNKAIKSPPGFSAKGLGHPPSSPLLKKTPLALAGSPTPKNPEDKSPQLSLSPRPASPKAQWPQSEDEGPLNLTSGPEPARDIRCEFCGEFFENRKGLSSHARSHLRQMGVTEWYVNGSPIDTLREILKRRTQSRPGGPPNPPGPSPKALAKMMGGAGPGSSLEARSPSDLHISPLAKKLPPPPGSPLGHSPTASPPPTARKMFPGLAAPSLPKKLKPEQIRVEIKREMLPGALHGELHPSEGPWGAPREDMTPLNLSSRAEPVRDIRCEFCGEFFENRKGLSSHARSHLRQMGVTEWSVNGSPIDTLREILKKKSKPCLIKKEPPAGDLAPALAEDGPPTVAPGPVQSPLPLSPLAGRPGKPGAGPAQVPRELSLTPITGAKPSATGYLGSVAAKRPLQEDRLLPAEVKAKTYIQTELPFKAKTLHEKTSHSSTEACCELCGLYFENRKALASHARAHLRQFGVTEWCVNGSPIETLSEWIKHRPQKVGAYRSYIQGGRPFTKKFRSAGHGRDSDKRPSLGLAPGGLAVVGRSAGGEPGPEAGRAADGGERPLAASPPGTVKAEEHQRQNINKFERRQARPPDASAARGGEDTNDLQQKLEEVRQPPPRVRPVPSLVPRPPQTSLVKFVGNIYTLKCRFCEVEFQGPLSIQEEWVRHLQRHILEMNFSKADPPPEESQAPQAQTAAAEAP
T1 sequence (Q96SW2 whole entry): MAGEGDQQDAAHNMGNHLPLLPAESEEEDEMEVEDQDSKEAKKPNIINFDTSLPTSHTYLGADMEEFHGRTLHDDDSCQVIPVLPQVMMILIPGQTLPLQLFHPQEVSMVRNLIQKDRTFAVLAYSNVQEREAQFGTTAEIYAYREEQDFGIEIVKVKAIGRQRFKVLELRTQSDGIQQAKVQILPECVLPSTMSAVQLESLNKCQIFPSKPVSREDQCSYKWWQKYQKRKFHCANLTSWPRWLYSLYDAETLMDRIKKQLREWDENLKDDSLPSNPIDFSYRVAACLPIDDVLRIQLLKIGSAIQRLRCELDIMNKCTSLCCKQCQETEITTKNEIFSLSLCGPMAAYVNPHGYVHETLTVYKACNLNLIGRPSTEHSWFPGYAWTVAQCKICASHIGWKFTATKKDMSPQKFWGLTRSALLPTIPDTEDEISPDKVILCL
T1 sequence (Q16531 whole entry partner): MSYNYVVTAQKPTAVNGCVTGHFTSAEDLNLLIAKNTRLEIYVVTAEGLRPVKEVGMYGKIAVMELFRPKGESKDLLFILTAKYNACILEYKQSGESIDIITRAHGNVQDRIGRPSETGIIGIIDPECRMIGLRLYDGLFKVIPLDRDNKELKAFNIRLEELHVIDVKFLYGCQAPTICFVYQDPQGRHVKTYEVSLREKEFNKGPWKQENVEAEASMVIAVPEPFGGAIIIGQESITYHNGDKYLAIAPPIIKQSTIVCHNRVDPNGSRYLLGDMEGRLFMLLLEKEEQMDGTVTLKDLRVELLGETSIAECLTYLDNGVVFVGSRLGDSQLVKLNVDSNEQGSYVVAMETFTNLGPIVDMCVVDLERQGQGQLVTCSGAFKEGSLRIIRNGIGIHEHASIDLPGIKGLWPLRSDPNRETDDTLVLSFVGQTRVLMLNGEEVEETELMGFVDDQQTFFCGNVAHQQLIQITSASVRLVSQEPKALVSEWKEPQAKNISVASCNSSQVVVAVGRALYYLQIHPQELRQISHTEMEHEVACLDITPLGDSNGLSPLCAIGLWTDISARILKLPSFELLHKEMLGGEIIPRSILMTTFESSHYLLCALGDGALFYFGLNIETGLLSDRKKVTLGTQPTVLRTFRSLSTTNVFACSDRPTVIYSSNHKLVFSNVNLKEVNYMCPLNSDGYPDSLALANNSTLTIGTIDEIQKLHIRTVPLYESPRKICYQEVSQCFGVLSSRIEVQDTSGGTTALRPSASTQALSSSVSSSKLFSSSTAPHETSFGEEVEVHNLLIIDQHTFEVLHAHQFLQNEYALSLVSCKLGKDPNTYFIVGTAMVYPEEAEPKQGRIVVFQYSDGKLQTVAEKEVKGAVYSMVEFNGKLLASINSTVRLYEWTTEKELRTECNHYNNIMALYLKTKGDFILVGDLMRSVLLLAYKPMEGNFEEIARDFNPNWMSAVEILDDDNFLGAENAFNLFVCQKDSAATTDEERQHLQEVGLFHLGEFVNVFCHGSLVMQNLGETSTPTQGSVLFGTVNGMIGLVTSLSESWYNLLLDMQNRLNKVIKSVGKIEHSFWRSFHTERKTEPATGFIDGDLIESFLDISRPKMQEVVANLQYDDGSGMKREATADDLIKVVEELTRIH
Put plainly: Quantification of WIZ protein levels in HiBit tag fusion protein assay (293T cells). Type of assay: cell-based. On the set-up: Dmax: dose or concentration left out as unconfirmed. The note with it: for DC50: read-out: WIZ AC50. Summed up:
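293T cells stably carrying a single-copy HiBit-WIZ fusion were exposed to compounds for about 18 hours at 37° C., top concentration 25 μM, 10-point 5-fold series. Lysates were complemented with LgBit and luminescence was read. Amax is the DMSO-normalized, curve-fitted percentage of WIZ-HiBit remaining at 25 uM.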
Background: HiBiT is a short tag that completes a luciferase, so light tracks the accessible tagged protein.

With `CCN1CCC[C@@H](Oc2ccc3c(c2)CN(C2CCC(=O)NC2=O)C3=O)C1` (mixture of isomers) [Example 1, 3-(5-(((R)-1-ethylpiperidin-3-yl)oxy)-1-oxoisoindolin-2-yl)piperidine-2,6-dione], the “HbF Amax” value in assay [1] was 66.5%. The Dmax in assay [2] (HEK-293T, read-out: % degradation of WIZ (100 − Amax)) is 76%. For the same compound, the remaining activity at 25 µM in assay [2] (HEK-293T, read-out: WIZ Amax) turned out to be 24%. Also, the DC50 in assay [2] (WIZ HiBit assay in 293T cells, about 18 hours, 10-point 5-fold dilution, top 25 μM) stood at 16 nM; in assay [2] (updated arithmatic mean over the number of repeats specified, assay of Example 89), 16 nM.

Values taken from US12103919B2, “3-(5-oxy)-1-oxoisoindolin-2-yl)piperidine-2,6-dione derivatives and uses thereof” (NOVARTIS AG, priority 2021, dated 2024).
